According to patent US20250230193A1, “CYCLIC COMPOUND HAVING SELECTIVE KRAS INHIBITORY EFFECT ON HRAS AND NRAS” (CHUGAI SEIYAKU KABUSHIKI KAISHA, priority 2022, published 2025):

Key:
[1] = target: GDP-bound NRAS wild-type protein (Homo sapiens, UniProt P01111); assay: Binding to NRAS by surface plasmon resonance (SPR), Single Cycle Kinetics; details: SPR, GDP-bound NRAS wild-type vs GDP-bound KRAS wild-type
[2] = target: GDP-bound HRAS wild-type protein (Homo sapiens, UniProt P01112); assay: Binding to HRAS by surface plasmon resonance (SPR), Single Cycle Kinetics; details: SPR, GDP-bound HRAS wild-type vs GDP-bound KRAS wild-type
Chain of GDP-bound HRAS wild-type protein (P01112 whole entry): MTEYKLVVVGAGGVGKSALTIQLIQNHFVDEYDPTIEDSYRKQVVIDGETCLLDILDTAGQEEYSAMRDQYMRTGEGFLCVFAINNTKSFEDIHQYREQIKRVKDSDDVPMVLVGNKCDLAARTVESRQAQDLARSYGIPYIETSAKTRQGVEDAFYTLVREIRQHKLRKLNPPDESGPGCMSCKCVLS

Chain of GDP-bound NRAS wild-type protein (P01111 whole entry): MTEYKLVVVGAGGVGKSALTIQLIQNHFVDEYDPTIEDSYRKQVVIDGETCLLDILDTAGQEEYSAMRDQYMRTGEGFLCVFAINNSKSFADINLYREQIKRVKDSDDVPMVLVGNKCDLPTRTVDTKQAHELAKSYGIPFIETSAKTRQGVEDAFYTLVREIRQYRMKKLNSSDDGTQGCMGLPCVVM

Compound	NRAS/KRAS (ratio of KD value with respect to NRAS to KD value with respect to KRAS) [1]	HRAS/KRAS (ratio of KD value with respect to HRAS to KD value with respect to KRAS) [2]
CCC[C@H]1C(=O)N[C@@H]([C@@H](C)CC)C(=O)N(C2CC2)CC(=O)N(C)[C@H]2C/C=C\CCN(C2=O)[C@@H](Cc2ccc(C)cc2)C(=O)N(C)CC(=O)N[C@@H](CCc2cc(F)c(C(F)(F)F)c(F)c2)C(=O)N2C[C@H](OCC)C[C@H]2C(=O)NC2(CC(C)(C)C2)C(=O)N(C)[C@@H](C2CCCC2)C(=O)N(C)[C@H](C(=O)N(C)C)CC(=O)N1C [PP2093, (2S,8S,12R,14S,20S,23S,27S,30S,36S,38Z)-20-cyclopentyl-32-cyclopropyl-8-[2-[3,5-difluoro-4-(trifluoromethyl)phenyl]ethyl]-12-ethoxy-N,N,3′,3′,4,19,22,26,35-nonamethyl-30-[(1S)-1-methylpropyl]-3,6,9,15,18,21,25,28,31,34,42-undecaoxo-27-propyl-2-(p-tolylmethyl)spiro[1,4,7,10,16,19,22,26,29,32,35-undecazatricyclo[34.5.1.0^10,14]dotetracont-38-ene-17,1′-cyclobutane]-23-carboxamide]	A (a compound having 10 or more and less than 20 is denoted as A)	A (a compound having 10 or more and less than 20 is denoted as A)
C=CCN1CC(=O)N(C)[C@H]2C/C=C\CCN(C2=O)[C@@H](Cc2ccc(C)cc2)C(=O)N(C)CC(=O)N[C@@H](CCc2cc(F)c(C(F)(F)F)c(F)c2)C(=O)N2C[C@H](OCC)C[C@H]2C(=O)NC2(CC(C)(C)C2)C(=O)N(C)[C@@H](C2CCCC2)C(=O)N(C)[C@H](C(=O)N(C)C)CC(=O)N(C)[C@@H](CCC)C(=O)N[C@@H]([C@@H](C)CC)C1=O [PP2094]	A (a compound having 10 or more and less than 20 is denoted as A)	A (a compound having 10 or more and less than 20 is denoted as A)
C#CCN1CC(=O)N(C)[C@H]2C/C=C\CCN(C2=O)[C@@H](Cc2ccc(C)cc2)C(=O)N(C)CC(=O)N[C@@H](CCc2cc(F)c(C(F)(F)F)c(F)c2)C(=O)N2C[C@H](OCC)C[C@H]2C(=O)NC2(CC(C)(C)C2)C(=O)N(C)[C@@H](C2CCCC2)C(=O)N(C)[C@H](C(=O)N(C)C)CC(=O)N(C)[C@@H](CCC)C(=O)N[C@@H]([C@@H](C)CC)C1=O [PP2095]	A (a compound having 10 or more and less than 20 is denoted as A)	A (a compound having 10 or more and less than 20 is denoted as A)
CCCN1CC(=O)N(C)[C@H]2C/C=C\CCN(C2=O)[C@@H](Cc2ccc(C)cc2)C(=O)N(C)CC(=O)N[C@@H](CCc2ccc(C(F)(F)F)c(OC)c2)C(=O)N2C[C@H](OCC)C[C@H]2C(=O)NC2(CC(C)(C)C2)C(=O)N(C)[C@@H](C2CCCC2)C(=O)N(C)[C@H](C(=O)N(C)C)CC(=O)N(C)[C@@H](CC)C(=O)N[C@@H]([C@@H](C)CC)C1=O [PP2096]	A (a compound having 10 or more and less than 20 is denoted as A)	A (a compound having 10 or more and less than 20 is denoted as A)
CCC[C@H]1C(=O)N[C@@H]([C@@H](C)CC)C(=O)N(C2CC2)CC(=O)N(C)[C@H]2C/C=C\CCN(C2=O)[C@@H](Cc2ccc(C)cc2)C(=O)N(C)CC(=O)N[C@@H](CCc2ccc(C(F)(F)F)c(OC)c2)C(=O)N2C[C@H](OCC)C[C@H]2C(=O)NC2(CC(C)(C)C2)C(=O)N(C)[C@@H](C2CCCC2)C(=O)N(C)[C@H](C(=O)N(C)C)CC(=O)N1C [PP2097]	A (a compound having 10 or more and less than 20 is denoted as A)	A (a compound having 10 or more and less than 20 is denoted as A)
C=CCN1CC(=O)N(C)[C@H]2C/C=C\CCN(C2=O)[C@@H](Cc2ccc(C)cc2)C(=O)N(C)CC(=O)N[C@@H](CCc2ccc(C(F)(F)F)c(OC)c2)C(=O)N2C[C@H](OCC)C[C@H]2C(=O)NC2(CC(C)(C)C2)C(=O)N(C)[C@@H](C2CCCC2)C(=O)N(C)[C@H](C(=O)N(C)C)CC(=O)N(C)[C@@H](CCC)C(=O)N[C@@H]([C@@H](C)CC)C1=O [PP2098]	A (a compound having 10 or more and less than 20 is denoted as A)	A (a compound having 10 or more and less than 20 is denoted as A)
C#CCN1CC(=O)N(C)[C@H]2C/C=C\CCN(C2=O)[C@@H](Cc2ccc(C)cc2)C(=O)N(C)CC(=O)N[C@@H](CCc2ccc(C(F)(F)F)c(OC)c2)C(=O)N2C[C@H](OCC)C[C@H]2C(=O)NC2(CC(C)(C)C2)C(=O)N(C)[C@@H](C2CCCC2)C(=O)N(C)[C@H](C(=O)N(C)C)CC(=O)N(C)[C@@H](CCC)C(=O)N[C@@H]([C@@H](C)CC)C1=O [PP2099]	A (a compound having 10 or more and less than 20 is denoted as A)	A (a compound having 10 or more and less than 20 is denoted as A)
CCC[C@H]1C(=O)N[C@@H]([C@@H](C)CC)C(=O)N(C2CC2)CC(=O)N(C)[C@H]2C/C=C\CCN(C2=O)[C@@H](Cc2ccc(C(F)(F)F)cc2)C(=O)N(C)CC(=O)N[C@@H](CCc2cc(F)c(C(F)(F)F)c(F)c2)C(=O)N2C[C@H](OCC)C[C@H]2C(=O)NC2(CC(C)(C)C2)C(=O)N(C)[C@@H](C2CCCC2)C(=O)N(C)[C@H](C(=O)N(C)C)CC(=O)N1C [PP2101]	A (a compound having 10 or more and less than 20 is denoted as A)	B (a compound having 3 or more and less than 10 is denoted as B)
C=CCN1CC(=O)N(C)[C@H]2C/C=C\CCN(C2=O)[C@@H](Cc2ccc(C(F)(F)F)cc2)C(=O)N(C)CC(=O)N[C@@H](CCc2cc(F)c(C(F)(F)F)c(F)c2)C(=O)N2C[C@H](OCC)C[C@H]2C(=O)NC2(CC(C)(C)C2)C(=O)N(C)[C@@H](C2CCCC2)C(=O)N(C)[C@H](C(=O)N(C)C)CC(=O)N(C)[C@@H](CCC)C(=O)N[C@@H]([C@@H](C)CC)C1=O [PP2102]	A (a compound having 10 or more and less than 20 is denoted as A)	A (a compound having 10 or more and less than 20 is denoted as A)
C#CCN1CC(=O)N(C)[C@H]2C/C=C\CCN(C2=O)[C@@H](Cc2ccc(C(F)(F)F)cc2)C(=O)N(C)CC(=O)N[C@@H](CCc2cc(F)c(C(F)(F)F)c(F)c2)C(=O)N2C[C@H](OCC)C[C@H]2C(=O)NC2(CC(C)(C)C2)C(=O)N(C)[C@@H](C2CCCC2)C(=O)N(C)[C@H](C(=O)N(C)C)CC(=O)N(C)[C@@H](CCC)C(=O)N[C@@H]([C@@H](C)CC)C1=O [PP2103]	A (a compound having 10 or more and less than 20 is denoted as A)	A (a compound having 10 or more and less than 20 is denoted as A)
CCC[C@H]1C(=O)N[C@@H]([C@@H](C)CC)C(=O)N(C2CC2)CC(=O)N(C)[C@H]2C/C=C\CCN(C2=O)[C@@H](Cc2ccc(C(F)(F)F)cc2)C(=O)N(C)CC(=O)N[C@@H](CCc2ccc(C(F)(F)F)c(OC)c2)C(=O)N2C[C@H](OCC)C[C@H]2C(=O)NC2(CC(C)(C)C2)C(=O)N(C)[C@@H](C2CCCC2)C(=O)N(C)[C@H](C(=O)N(C)C)CC(=O)N1C [PP2105]	A (a compound having 10 or more and less than 20 is denoted as A)	A (a compound having 10 or more and less than 20 is denoted as A)
C=CCN1CC(=O)N(C)[C@H]2C/C=C\CCN(C2=O)[C@@H](Cc2ccc(C(F)(F)F)cc2)C(=O)N(C)CC(=O)N[C@@H](CCc2ccc(C(F)(F)F)c(OC)c2)C(=O)N2C[C@H](OCC)C[C@H]2C(=O)NC2(CC(C)(C)C2)C(=O)N(C)[C@@H](C2CCCC2)C(=O)N(C)[C@H](C(=O)N(C)C)CC(=O)N(C)[C@@H](CCC)C(=O)N[C@@H]([C@@H](C)CC)C1=O [PP2106]	A (a compound having 10 or more and less than 20 is denoted as A)	A (a compound having 10 or more and less than 20 is denoted as A)
C#CCN1CC(=O)N(C)[C@H]2C/C=C\CCN(C2=O)[C@@H](Cc2ccc(C(F)(F)F)cc2)C(=O)N(C)CC(=O)N[C@@H](CCc2ccc(C(F)(F)F)c(OC)c2)C(=O)N2C[C@H](OCC)C[C@H]2C(=O)NC2(CC(C)(C)C2)C(=O)N(C)[C@@H](C2CCCC2)C(=O)N(C)[C@H](C(=O)N(C)C)CC(=O)N(C)[C@@H](CCC)C(=O)N[C@@H]([C@@H](C)CC)C1=O [PP2107]	A (a compound having 10 or more and less than 20 is denoted as A)	A (a compound having 10 or more and less than 20 is denoted as A)
CCC[C@H]1C(=O)N[C@@H]([C@@H](C)CC)C(=O)N(CCC)CC(=O)N(C)[C@H]2C/C=C\CCN(C2=O)[C@@H](Cc2ccc(C)cc2)C(=O)N(C)CC(=O)N[C@@H](CCc2cc(F)c(C(F)(F)F)c(F)c2)C(=O)N2C[C@H](OCC)C[C@H]2C(=O)NC2(CC(C)(C)C2)C(=O)N(C)[C@@H](C2CCCC2)C(=O)N(C)[C@H](C(=O)N(C)C)CC(=O)N1C [PP2108]	A (a compound having 10 or more and less than 20 is denoted as A)	A (a compound having 10 or more and less than 20 is denoted as A)
CCO[C@@H]1C[C@H]2C(=O)NC3(CC(C)(C)C3)C(=O)N(C)[C@@H](C3CCCC3)C(=O)N(C)[C@H](C(=O)N(C)C)CC(=O)N(C)[C@@H](CC(C)C)C(=O)N[C@@H]([C@@H](C)CC)C(=O)N(C3CC3)CC(=O)N(C)[C@H]3C/C=C\CCN(C3=O)[C@@H](Cc3ccc(C)cc3)C(=O)N(C)CC(=O)N[C@@H](CCc3cc(F)c(C(F)(F)F)c(F)c3)C(=O)N2C1 [PP2109]	A (a compound having 10 or more and less than 20 is denoted as A)	A (a compound having 10 or more and less than 20 is denoted as A)
